What was measured:
mTOR kinase = target: T1, mTOR kinase (Homo sapiens, UniProt P42345); assay: mTOR kinase TR-FRET assay; format: biochemical; details: 20 μM ATP
T1 construct: purchased Millipore, USA
Description: Compound inhibition for mTOR kinase was determined in a homogeneous TR-FRET assay using the Lance® ULight-p70 S6K (Thr 389) peptide (obtained from Perkin-Elmer). The ULight™-labeled synthetic peptide contains the amino acid residues surrounding Thr389 of human p70 S6K. The ULight-p70 S6K peptide is phosphorylated at Thr389 by mTOR. Phosphorylation motif: LGFTYVAP as substrate.
The compound dilution was carried out in 100% DMSO followed by a buffer dilution. The reaction buffer was HEPES (50 mM pH 7.5), EGTA (1 mM), MnCl2 (3 mM). Test compounds at various concentrations were pre-incubated with mTOR (Millipore, USA; 5 ng) for 60 min, and then the Lance® ULight-p70 S6K (Thr 389) peptide (50 nM) was added along with ATP (20 μM). After incubating the reaction mixture for 60 minutes at room temperature, the kinase reaction was terminated by the addition of EDTA (10 mM) followed by the addition of detection mix, i.e., 1 nM Eu-labeled anti-phospho-substrate antibody (Perkin Elmer, USA). The fluorescence emission at […] was measured upon excitation at 340 nm. IC50 values were subsequently determined using a sigmoidal dose-response curve (variable slope) in GraphPad Prism® 5 software.
Compounds of formula (I) caused inhibition of mTOR kinase activity as determined by this assay.

PI3Kα (wild-type) = target: T2, PI3Kα (wild-type) (Homo sapiens, UniProt P42336); assay: PI3 Kinase TR-FRET assay, PI3Kα (wild-type); format: biochemical; details: wild-type P110/P85α, 10 μM ATP
T2 construct: made in house; host or cells: SF9 insect cells
Description: The ability of compounds of the invention to inhibit PI3K activity was determined in a homogeneous TR-FRET assay using a PI3K assay kit (Millipore, USA; cat #33-016) according to manufacturer's instructions. PI3-Kinases (isoforms α, β, γ and δ) catalyze the phosphorylation of phosphatidylinositol, PIP2 to PIP3 in the presence of ATP and Mg^2+. The PIP3 product is detected by displacement of biotin-PIP3 from an energy transfer complex consisting of Europium labeled anti-GST monoclonal antibody, a GST-tagged PH domain, biotinylated PIP3 and Streptavidin-APC. Excitation of Europium in the complex results in an energy transfer to the APC and a fluorescence emission at 665 nm. The PIP3 product displaces biotin-PIP3 from the complex resulting in a loss of energy transfer and thus a decrease in signal.
To test for the ability of compounds to inhibit the activity of PI3Kα (wild-type), exemplary compounds of formula (I) were dissolved in DMSO and directly distributed into 384-well plates at a volume of 0.5 μL. 14.5 μL of P110/P85α/PIP2 mixture in buffer (obtained from the Millipore kit) containing MgCl2 (40 mM) and DTT (5 mM) was added to compound wells and incubated for 60 minutes at room temperature. P110/P85α was expressed in SF9 insect cells and purified nickel column extraction. Five ng of wild-type P110/P85α was used in the assay. The kinase reaction was started by the addition of ATP. The assay concentrations of both PIP2 and ATP were 10 μM. The reaction mixture was incubated for 30 minutes at room temperature and was terminated by the addition of stop mix and detection mix. Fluorescence was measured at 615 and 665 nm upon excitation at 340 nm in a Victor™ V5 fluorometer (Perkin Elmer, USA). The fluorescence emission ratio at 665 to 615 nm, proportional to the kinase activity, was plotted against the compound concentration to generate dose-response curves and IC50 values were determined using GraphPad Prism® 5 software.

T2 sequence (P42336 whole entry, species assumed): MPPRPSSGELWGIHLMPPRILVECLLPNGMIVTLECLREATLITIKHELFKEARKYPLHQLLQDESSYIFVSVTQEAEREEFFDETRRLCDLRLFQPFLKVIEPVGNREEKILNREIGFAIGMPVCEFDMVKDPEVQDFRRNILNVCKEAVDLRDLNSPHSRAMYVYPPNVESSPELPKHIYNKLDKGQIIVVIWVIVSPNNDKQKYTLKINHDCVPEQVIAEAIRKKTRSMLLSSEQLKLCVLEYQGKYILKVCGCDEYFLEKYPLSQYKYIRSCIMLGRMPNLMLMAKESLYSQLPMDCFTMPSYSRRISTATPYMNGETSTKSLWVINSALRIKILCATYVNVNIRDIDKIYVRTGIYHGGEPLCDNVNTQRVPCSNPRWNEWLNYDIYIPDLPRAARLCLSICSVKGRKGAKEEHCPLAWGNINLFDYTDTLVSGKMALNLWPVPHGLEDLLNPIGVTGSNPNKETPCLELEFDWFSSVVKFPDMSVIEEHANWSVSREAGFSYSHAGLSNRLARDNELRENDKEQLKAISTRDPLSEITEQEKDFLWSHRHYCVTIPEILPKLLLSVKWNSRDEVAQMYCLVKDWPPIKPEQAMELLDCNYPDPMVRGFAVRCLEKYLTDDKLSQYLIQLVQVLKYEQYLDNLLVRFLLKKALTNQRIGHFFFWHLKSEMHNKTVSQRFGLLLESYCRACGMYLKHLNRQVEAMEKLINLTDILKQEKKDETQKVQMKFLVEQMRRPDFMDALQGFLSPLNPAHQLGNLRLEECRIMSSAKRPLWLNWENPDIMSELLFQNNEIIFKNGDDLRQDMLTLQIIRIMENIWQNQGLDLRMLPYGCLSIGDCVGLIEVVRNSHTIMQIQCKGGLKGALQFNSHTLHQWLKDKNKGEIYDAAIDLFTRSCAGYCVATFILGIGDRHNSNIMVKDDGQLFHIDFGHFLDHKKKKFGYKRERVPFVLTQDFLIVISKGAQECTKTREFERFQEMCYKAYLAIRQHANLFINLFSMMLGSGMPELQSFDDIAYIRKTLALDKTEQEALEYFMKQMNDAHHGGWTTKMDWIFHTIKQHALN
T2 sequence (P27986 whole entry partner, species assumed): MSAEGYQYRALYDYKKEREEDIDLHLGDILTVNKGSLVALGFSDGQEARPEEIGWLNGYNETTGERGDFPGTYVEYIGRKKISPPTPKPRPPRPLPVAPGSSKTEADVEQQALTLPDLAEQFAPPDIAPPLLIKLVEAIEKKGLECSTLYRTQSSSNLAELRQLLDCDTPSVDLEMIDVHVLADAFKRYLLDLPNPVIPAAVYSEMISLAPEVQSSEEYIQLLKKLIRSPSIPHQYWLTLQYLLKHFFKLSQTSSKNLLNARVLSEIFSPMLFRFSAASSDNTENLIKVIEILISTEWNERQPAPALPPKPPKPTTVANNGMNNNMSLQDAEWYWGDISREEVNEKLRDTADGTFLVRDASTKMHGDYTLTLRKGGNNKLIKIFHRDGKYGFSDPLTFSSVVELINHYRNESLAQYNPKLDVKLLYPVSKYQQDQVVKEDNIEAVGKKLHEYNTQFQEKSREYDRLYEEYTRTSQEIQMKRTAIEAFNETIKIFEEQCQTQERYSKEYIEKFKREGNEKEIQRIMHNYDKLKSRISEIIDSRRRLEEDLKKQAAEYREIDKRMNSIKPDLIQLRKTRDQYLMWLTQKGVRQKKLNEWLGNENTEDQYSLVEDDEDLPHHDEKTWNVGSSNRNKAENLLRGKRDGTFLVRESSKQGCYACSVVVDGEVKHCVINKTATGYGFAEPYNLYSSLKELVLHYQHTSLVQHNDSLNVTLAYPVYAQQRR
T1 sequence (P42345 1362-2549 limits assumed): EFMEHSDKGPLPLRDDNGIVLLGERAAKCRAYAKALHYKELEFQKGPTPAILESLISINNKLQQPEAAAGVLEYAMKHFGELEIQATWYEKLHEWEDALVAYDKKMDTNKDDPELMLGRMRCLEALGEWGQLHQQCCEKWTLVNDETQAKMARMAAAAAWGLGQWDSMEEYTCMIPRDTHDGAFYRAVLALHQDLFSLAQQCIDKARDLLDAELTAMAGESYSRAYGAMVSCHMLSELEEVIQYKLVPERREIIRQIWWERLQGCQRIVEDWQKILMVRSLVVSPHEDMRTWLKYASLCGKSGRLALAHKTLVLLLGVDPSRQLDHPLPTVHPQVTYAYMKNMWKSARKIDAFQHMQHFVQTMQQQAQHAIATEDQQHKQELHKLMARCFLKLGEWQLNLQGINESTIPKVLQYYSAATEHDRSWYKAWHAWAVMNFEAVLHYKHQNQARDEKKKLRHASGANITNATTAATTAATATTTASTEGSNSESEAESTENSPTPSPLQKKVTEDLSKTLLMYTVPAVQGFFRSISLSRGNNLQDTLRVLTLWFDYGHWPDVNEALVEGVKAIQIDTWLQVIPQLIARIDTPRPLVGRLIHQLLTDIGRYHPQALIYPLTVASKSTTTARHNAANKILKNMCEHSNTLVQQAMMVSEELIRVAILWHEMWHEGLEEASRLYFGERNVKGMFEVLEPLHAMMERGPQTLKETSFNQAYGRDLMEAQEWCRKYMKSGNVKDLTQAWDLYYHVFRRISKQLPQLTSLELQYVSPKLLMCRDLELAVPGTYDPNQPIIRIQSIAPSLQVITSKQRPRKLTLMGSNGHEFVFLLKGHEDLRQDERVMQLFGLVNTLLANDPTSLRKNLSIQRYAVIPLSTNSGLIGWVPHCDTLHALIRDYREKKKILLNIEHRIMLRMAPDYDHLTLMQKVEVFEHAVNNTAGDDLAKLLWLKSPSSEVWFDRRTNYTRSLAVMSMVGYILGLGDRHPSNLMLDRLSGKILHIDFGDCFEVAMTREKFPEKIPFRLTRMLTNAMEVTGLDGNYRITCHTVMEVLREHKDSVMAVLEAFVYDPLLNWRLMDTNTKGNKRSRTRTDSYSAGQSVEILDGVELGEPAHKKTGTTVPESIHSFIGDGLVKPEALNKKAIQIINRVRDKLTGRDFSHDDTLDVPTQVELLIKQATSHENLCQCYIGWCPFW

Compound | IC50 (mTOR kinase) | IC50 (PI3Kα (wild-type))
CC(C)(O)C(=O)Nc1cccc(-c2ccc3c(N4CCOCC4)nc(-c4cnc(N)nc4)nc3c2)c1 [Example 6, N-(3-(2-(2-Aminopyrimidin-5-yl)-4-morpholinoquinazolin-7-yl)phenyl)-2-hydroxy-2-methylpropanamide] | 50 to 200 nM | 50 to 200 nM
CC(O)C(=O)N1CCN(Cc2cnc3c(N4CCOCC4)nc(-c4cnc(N)nc4)nc3c2)CC1 (stereo not shown) [Example 11, 1-(4-((2-(2-aminopyrimidin-5-yl)-4-morpholinopyrido[3,2-d]pyrimidin-7-yl)-methyl)piperazin-1-yl)-2-hydroxypropan-1-one] | 201 to 10000 nM | 201 to 10000 nM
Nc1ncc(-c2nc(N3CCOCC3)c3ccc(-c4cncnc4)cc3n2)cn1 [Example 12, 5-(4-morpholino-7-(pyrimidin-5-yl)quinazolin-2-yl)pyrimidin-2-amine] | 201 to 10000 nM | 201 to 10000 nM
Nc1ncc(-c2nc(N3CCOCC3)c3ccc(-c4ccsc4)cc3n2)cn1 [Example 17, 5-(4-morpholino-7-(thiophen-3-yl)-quinazolin-2-yl)-pyrimidin-2-amine] | 50 to 200 nM | 
CS(=O)(=O)c1cncc(-c2ccc3c(N4CCOCC4)nc(-c4cnc(N)nc4)nc3c2)c1 [Example 18, 5-(7-(5-(methyl-sulfonyl)pyridin-3-yl)-4-morpholinoquinazolin-2-yl)pyrimidin-2-amine] | 201 to 10000 nM | 201 to 10000 nM
Nc1ncc(-c2nc(N3CCOCC3)c3ccc(-c4cccnc4F)cc3n2)cn1 [Example 19, 5-(7-(2-fluoropyridin-3-yl)-4-morpholino-quinazolin-2-yl)-pyrimidin-2-amine] | > 1000 nM | > 1000 nM
CC(=O)N(C)c1cccc(-c2cnc3c(N4CCOCC4)nc(-c4cnc(N)nc4)nc3c2)c1 [Example 27, N-(3-(2-(2-amino-pyrimidin-5-yl)-4-morpholinopyrido[3,2-d]-pyrimidin-7-yl)phenyl)-N-methylacetamide] | 50 to 200 nM | 50 to 200 nM
CC(=O)Nc1cncc(-c2cnc3c(N4CCOCC4)nc(-c4cnc(N)nc4)nc3c2)c1 [Example 30, N-(5-(2-(2-amino-pyrimidin-5-yl)-4-morpholinopyrido[3,2-d]pyrimidin-7-yl)pyridin-3-yl)acetamide] | 201 to 10000 nM | < 50 nM
Nc1ncc(-c2nc(N3CCOCC3)c3ncc(-c4ccc(NC(=O)C5CC5)cc4F)cc3n2)cn1 [Example 32, N-(4-(2-(2-amino-pyrimidin-5-yl)-4-morpholinopyrido[3,2-d]pyrimidin-7-yl)-3-fluorophenyl)cyclo-propanecarboxamide] | 50 to 200 nM | < 50 nM
CS(=O)(=O)N1CCN(C(=O)c2cccc(-c3cnc4c(N5CCOCC5)nc(-c5cnc(N)nc5)nc4c3)c2)CC1 [Example 36, (3-(2-(2-aminopyrimidin-5-yl)-4-morpholino-pyrido[3,2-d]pyrimidin-7-yl)phenyl)(4-(methyl-sulfonyl)piperazin-1-yl)-methanone] |  | < 50 nM
CN(C)C(=O)c1cccc(-c2cnc3c(N4CCOCC4)nc(-c4cnc(N)nc4)nc3c2)c1 [Example 41, 3-(2-(2-aminopyrimidin-5-yl)-4-morpholinopyrido[3,2-d]pyrimidin-7-yl)-N,N-dimethylbenzamide] | 50 to 200 nM | < 50 nM
CN(C)CC(=O)Nc1cccc(-c2ccc3c(N4CCOCC4)nc(-c4cnc(N)nc4)nc3c2)c1 [Example 42, N-(3-(2-(2-amino-pyrimidin-5-yl)-4-morpholinoquinazolin-7-yl)phenyl)-2-(dimethylamino)-acetamide] | 50 to 200 nM | 201 to 10000 nM
CC(O)C(=O)Nc1cccc(-c2ccc3c(N4CCOCC4)nc(-c4cnc(N)nc4)nc3c2)c1 (stereo not shown) [Example 43, N-(3-(2-(2-amino-pyrimidin-5-yl)-4-morpholinoquinazolin-7-yl)phenyl)-2-hydroxy-propanamide] | < 50 nM | 201 to 10000 nM
C[C@H](O)C(=O)Nc1cccc(-c2ccc3c(N4CCOCC4)nc(-c4cnc(N)nc4)nc3c2)c1 [Example 44] | 201 to 10000 nM | 50 to 200 nM
Nc1ncc(-c2nc(N3CCOCC3)c3ncc(-c4ccc(NC(=O)C5CC5)cc4)cc3n2)cn1 [Example 62, N-(4-(2-(2-amino-pyrimidin-5-yl)-4-morpholinopyrido[3,2-d]pyrimidin-7-yl)-phenyl)cyclopropane-carboxamide] | 50 to 200 nM | < 50 nM
Nc1ncc(-c2nc(N3CCOCC3)c3ncc(-c4cccc(NC(=O)C5CCOCC5)c4)cc3n2)cn1 [Example 63, N-(3-(2-(2-amino-pyrimidin-5-yl)-4-morpholinopyrido[3,2-d]pyrimidin-7-yl)-phenyl)tetrahydro-2H-pyran-4-carboxamide] | < 50 nM | < 50 nM
Nc1ncc(-c2nc(N3CCOCC3)c3ncc(-c4cccc(NC(=O)c5csnn5)c4)cc3n2)cn1 [Example 69, N-(3-(2-(2-amino-pyrimidin-5-yl)-4-morpholinopyrido[3,2-d]pyrimidin-7-yl)phenyl)-1,2,3-thiadiazole-4-carboxamide] |  | < 50 nM
Nc1ncc(-c2nc(N3CCOCC3)c3ncc(-c4cc(NC(=O)c5cccnc5)ccc4F)cc3n2)cn1 [Example 71, N-(3-(2-(2-amino-pyrimidin-5-yl)-4-morpholinopyrido[3,2-d]-pyrimidin-7-yl)-4-fluoro-phenyl)nicotinamide] | < 50 nM | < 50 nM
Cc1ccc(C(=O)Nc2ccc(F)c(-c3cnc4c(N5CCOCC5)nc(-c5cnc(N)nc5)nc4c3)c2)o1 [Example 72, N-(3-(2-(2-amino-pyrimidin-5-yl)-4-morpholinopyrido[3,2-d]pyrimidin-7-yl)-4-fluorophenyl)-5-methylfuran-2-carboxamide] |  | < 50 nM
Cc1ccc(C(=O)Nc2ccc(-c3cnc4c(N5CCOCC5)nc(-c5cnc(N)nc5)nc4c3)cc2)o1 [Example 73, N-(4-(2-(2-amino-pyrimidin-5-yl)-4-morpholinopyrido[3,2-d]pyrimidin-7-yl)phenyl)-5-methylfuran-2-carboxamide] |  | < 50 nM
Nc1ncc(-c2nc(N3CCOCC3)c3ncc(-c4cccc(NC(=O)c5ccc(F)cc5)c4)cc3n2)cn1 [Example 74, N-(3-(2-(2-amino-pyrimidin-5-yl)-4-morpholinopyrido[3,2-d]pyrimidin-7-yl)phenyl)-4-fluorobenzamide] |  | < 50 nM
Cc1cc(C(=O)Nc2cccc(-c3cnc4c(N5CCOCC5)nc(-c5cnc(N)nc5)nc4c3)c2)[nH]n1 [Example 75, N-(3-(2-(2-amino-pyrimidin-5-yl)-4-morpholinopyrido[3,2-d]pyrimidin-7-yl)phenyl)-3-methyl-1H-pyrazole-5-carboxamide] | < 50 nM | < 50 nM
Nc1ncc(-c2nc(N3CCOCC3)c3ncc(-c4ccc(NC(=O)C5CCC5)cc4)cc3n2)cn1 [Example 78, N-(4-(2-(2-amino-pyrimidin-5-yl)-4-morpholinopyrido[3,2-d]pyrimidin-7-yl)-phenyl)cyclobutane-carboxamide] |  | < 50 nM
Nc1ncc(-c2nc(N3CCOCC3)c3ncc(-c4ccc(NC(=O)c5ccco5)cc4)cc3n2)cn1 [Example 79, N-(4-(2-(2-amino-pyrimidin-5-yl)-4-morpholinopyrido[3,2-d]pyrimidin-7-yl)-phenyl)furan-2-carboxamide] |  | < 50 nM
CN1CCN(C(=O)Nc2cccc(-c3ccc4c(N5CCOCC5)nc(-c5cnc(N)nc5)nc4c3)c2)CC1 [Example 87, N-(3-(2-(2-amino-pyrimidin-5-yl)-4-morpholinoquinazolin-7-yl)phenyl)-4-methyl-piperazine-1-carboxamide] | 201 to 10000 nM | < 50 nM
CC(C)(C#N)C(=O)N1CCN(c2cccc(-c3cnc4c(N5CCOCC5)nc(-c5cnc(N)nc5)nc4c3)c2)CC1 [Example 107, 3-(4-(3-(2-(2-amino-pyrimidin-5-yl)-4-morpholinopyrido[3,2-d]-pyrimidin-7-yl)-phenyl)piperazin-1-yl)-2,2-dimethyl-3-oxopropanenitrile] |  | < 50 nM

— US9145411B2, “Substituted amino-pyrimidine derivatives” (Asana Biosciences, LLC, priority 2012, dated 2015)
